Assays:
[1] = system: human lower esophageal sphincter (LES) tissues; assay: Ex vivo relaxation of carbachol-pre-contracted human lower esophageal sphincter (LES) muscle strips, organ bath; format: cell-based
Method: The objective of this study was to determine the relaxation effects of two sGC stimulators, Compound A and Compound B (depicted below) on human lower esophageal sphincter (LES) tissues ex vivo. Human lower esophageal sphincter muscle strips were mounted in a wire myograph apparatus and pre-contracted with carbachol (Cch). A cumulative concentration response curve (CCRC) of Compound A and Compound B was then performed on the tissues. The concentration response was performed with the compounds alone, and/or with the test compounds in the presence of a fixed concentration of the NO donor DETA-NONOate.
Compound A and Compound B were stored at room temperature. On each experimental day, 10 mM stock of the test compound was prepared in DMSO. Further dilutions up to 0.1 μM were made serially in ethanol, and subsequently in distilled water, depending on solubility of the compounds in those solvents. Compound A and Compound B Vehicle solutions were made by following the same serial dilution methods
DETA-NONOate was stored at −20° C. On each experimental day, a stock solution of 100 mM was prepared in Phosphate Buffered Saline (PBS), pH 8 (Boston Bioproducts). A 1:10 dilution from the stock was made in PBS pH 8, to obtain a concentration of 10 mM.
SNP was stored at −20° C. On each experimental day, a stock solution of 100 mM was prepared in distilled water. 25 μl of the 100 mM stock was added to each bath for a final concentration of 100 μM in bath.
Tissues were obtained postmortem. Only macroscopically normal tissue that was obtained from donors with no known recent history of gastrointestinal disease.
Human LES mucosa-free muscle strips, of approximately 15 mm in length and 2-3 mm width were dissected free from surrounding tissue and mounted on tissue posts in 25 mL organ baths (Panlab 16 channel automated organ bath and thermostatic controller) containing physiological saline solution (PSS; composition: 119.0 mM NaCl, 4.70 mM KCl, 1.20 mM MgSO4, 24.9 mM NaHCO3, 1.20 mM KH2PO4, 2.50 mM CaCl2, 11.1 mM glucose), aerated with 95% O2/5% CO2, warmed and maintained at approximately 37° C. The PSS solution was supplemented with 1 μM indomethacin. The LES strips were mounted on the tissue posts and allowed to equilibrate for approximately 30 minutes.
The LES strips were set to a tension of 2.0 g+0.2 g. Baths were washed approximately every 15 minutes over a 60-minute period, with re-tensioning to 2.0±0.2 g if tension dropped below 1.0 g.
The viability of the LES muscle strips was tested by application of 80 mM KCl, looking for maximum contractility response. Upon plateau all baths were washed three times with PSS and the tension was allowed to return to baseline levels. The strips that responded to the KCl functional check were used for CCh-induced contractions.
For each one of compounds A and B, experiments were conducted with LES tissues from two human donors on two separate days.
Upon stabilization of baseline tension, each of the following experiments was allocated to one bath such that 9 or more muscle strips were set up for each compound on each experimental day.
Compound A Experiments with tissues from Donor 1: • 1. CCRC to DETA-NO vehicle • 2. CCRC to Compound A vehicle • 3. CCRC to DETA-NO • 4. CCRC to DETA-NO • 5. CCRC to Compound A • 6. CCRC to Compound A • 7. Since DETA-NO relaxed LES, a CCRC to Compound A was performed in the presence of DETA-NO at a sub-threshold concentration (1 μM, determined in conditions 3 and 4) • 8. CCRC to Compound A in the presence of DETA-NO ([…]) • 9. CCRC to Compound A vehicle in the presence of DETA-NO ([…]).
Compound A Experiments with tissues from Donor 2: • 1. CCRC to Compound A vehicle • 2. CCRC to Compound A vehicle • 3. CCRC to Compound A vehicle in the presence of 10 μM DETA-NO • 4. CCRC to Compound A vehicle in the presence of 30 μM DETA-NO • 5. CCRC to Compound A • 6. CCRC to Compound A • 7. CCRC to Compound A in the presence of 10 μM DETA-NO • 8. CCRC to Compound A in the presence of 10 μM DETA-NO • 9. […]

achalasia patients = details: report from 2000; cited from earlier work
[2] = 10 μM compound in the presence of 30 μM DETA-NO
[3] = in the presence of 30 μM DETA-NO

C[C@@]1(C(F)(F)F)C(=O)Nc2nc(-c3nn(Cc4ncccc4F)c4ncc(F)cc34)nc(NCCC(F)(F)F)c21 [Compound D]
maximum relaxation relative to isoprenaline [1, 2]: 80%
EC50 [1, 3]: 1600 nM

COC(=O)N(C)c1c(N)nc(-c2nn(Cc3ccccc3F)c3ncccc23)nc1N [Compound C]
maximum relaxation relative to isoprenaline [1, 2]: 90%
EC50 [1, 3]: 500 nM

CCCc1nn(C)c2c(=O)[nH]c(-c3cc(S(=O)(=O)N4CCN(C)CC4)ccc3OCC)nc12 [sildenafil]
effect on LES pressure (achalasia patients): able to reduce LES pressure
effect on clinical symptoms (achalasia patients): clinical symptoms were not improved

Fc1ccccc1Cn1nc(-c2nc(C(F)(F)F)n[nH]2)c2cccnc21 [Compound E]
maximum relaxation relative to isoprenaline [1, 2]: 89%
EC50 [1, 3]: 530 nM

OC(CNc1nc(-c2cc(-c3ccon3)n(Cc3ccccc3F)n2)ncc1F)(C(F)(F)F)C(F)(F)F [Compound A]
relaxation ([1]; 10 μM compound in the presence of 1 μM DETA-NO, donor 1): 16%
maximum relaxation ([1]; 10 μM compound in the presence of 10 μM DETA-NO, donor 2, N=4): 38%
maximum relaxation ([1]; 10 μM compound, absence of NO, first donor, N=2): 49%
maximum relaxation ([1]; 10 μM compound, absence of NO, second donor, N=2): 31%
maximum relaxation ([1]; in the presence of 30 μM DETA-NO, donor 2, N=3): 51%

NC(=O)[C@](O)(CNc1nc(-c2cc(-c3ccon3)n(Cc3ccccc3F)n2)ncc1F)C(F)(F)F [Compound B]
maximum relaxation relative to isoprenaline [1, 2]: 77%
maximum relaxation relative to isoprenaline ([1]; 10 μM compound, absence of NO, N=8): 47%
EC50 [1, 3]: 1700 nM

NCCN(CCN)/[N+]([O-])=N/O [DETA-NO, diethylenetriamine/NO, reference compound]
mean percentage relaxation ([1]; 10 μM DETA-NO alone, second donor, N=5): 8%
mean relaxation relative to isoprenaline ([1]; 30 μM DETA-NO alone, Compound B experiments, N=12): 7.6%
mean percentage relaxation ([1]; 30 μM DETA-NO alone, second donor, N=4): 13%

From patent US20180344735A1, “USE OF sGC STIMULATORS FOR THE TREATMENT OF GASTROINTESTINAL SPHINCTER DYSFUNCTION” (Ironwood Pharmaceuticals, Inc., priority 2015, published 2018)
